Square brackets hold non-standard residues; d marks the D form. Peptide text beside a SMILES is read from it. * marks the point of attachment. FITC = O=C1OC2(c3ccc(O)cc3Oc3cc(O)ccc32)c2ccc(NC(=S)*)cc21; pS = N[C@@H](COP(=O)(O)O)C(=O)O; Ahx = NCCCCCC(=O)O
Molecular target: GST-LC3B (Homo sapiens, UniProt Q9GZQ8)
Assay: Surface plasmon resonance
Type: binding
Settings: read-out: kon (on-rate)

| kon | SMILES |
| --- | --- |
| 550 M⁻¹ s⁻¹ | CC[C@H](C)[C@H](NC(=O)[C@H](CCC(=O)O)NC(=O)[C@@H](NC(=O)[C@H](Cc1ccccc1)NC(=O)[C@H](CO)NC(=O)[C@H](CC(=O)O)NC(=O)[C@H](CCC(=O)O)NC(=O)[C@H](CO)NC(=O)[C@H](CO)NC(=O)CNC(=O)[C@H](CO)NC(=O)[C@H](CO)NC(=O)[C@H](CC(N)=O)NC(=O)CCCCCNC(=S)Nc1ccc2c(c1)C(=O)OC21c2ccc(O)cc2Oc2cc(O)ccc21)C(C)C)C(=O)N[C@@H](CCCNC(=N)N)C(=O)N[C@@H](CCSC)C(=O)N[C@@H](C)C(=O)N[C@@H](CCC(=O)O)C(=O)O [WT] ({FITC-Ahx}-NSSGSSEDSFVEIRMAE-OH) |
| 17800 M⁻¹ s⁻¹ | CC[C@H](C)[C@H](NC(=O)[C@H](CCC(=O)O)NC(=O)[C@@H](NC(=O)[C@H](Cc1ccccc1)NC(=O)[C@H](COP(=O)(O)O)NC(=O)[C@H](CC(=O)O)NC(=O)[C@H](CCC(=O)O)NC(=O)[C@H](CO)NC(=O)[C@H](CO)NC(=O)CNC(=O)[C@H](CO)NC(=O)[C@H](CO)NC(=O)[C@H](CC(N)=O)NC(=O)CCCCCNC(=S)Nc1ccc2c(c1)C(=O)OC21c2ccc(O)cc2Oc2cc(O)ccc21)C(C)C)C(=O)N[C@@H](CCCNC(=N)N)C(=O)N[C@@H](CCSC)C(=O)N[C@@H](C)C(=O)N[C@@H](CCC(=O)O)C(=O)O [pS177] ({FITC-Ahx}-NSSGSSED[pS]FVEIRMAE-OH) |

Reference: paper PMC12368060 (Communications Biology, 2025)
